Measured values as given in patent US12535483B2, “Norovirus-binding peptide” (Kao Corporation, priority 2019, dated 2026).

Assays:
GII.17 VLP = assay: KD value by bio-layer interferometry (BLI, BLItz), peptide on SA chip, GII.17 VLP; type: binding, norovirus GII.17 Saitama strain; conditions: for Kd: GII.17 VLP 1 and 0.1 mg/mL, 100 μM peptide bound to SA chip, KD calculated from Ka and Kd values; for ka / kd: GII.17 VLP; for ka: association 90 sec; for kd: dissociation in PBS 60 sec
Description: (§1) <Calculation of KD Value by Bio-Layer Interferometry: BLI Method>
(§2) The apparatus used was BLItz™ (manufactured by ForteBio). The tip of SA chip (manufactured by ForteBio) was kept in contact with purified water for 1 minute for hydration and was then kept in contact with a 1% BSA aqueous solution for 1 hour for blocking. The SA chip subjected to blocking treatment was set to the measuring unit of the BLItz™ main body, and measurement was performed according to the program shown in Table 14. The peptides of SEQ ID NOs: 43, 48, 52, 59, 131, 143, 150, 154, 155, 156, 163, and 172 were used, and the concentration was adjusted to 100 µM. The concentrations of each of the GII.3 and GII.17 VLPs were adjusted to 1 and 0.1 mg/mL. The measurement data were analyzed using the attached software, and the KD value was calculated based on the Ka and Kd values.

GII.3 VLP = assay: KD value by bio-layer interferometry (BLI, BLItz), peptide on SA chip, GII.3 VLP; type: binding, norovirus GII.3 TCH strain; conditions: for Kd: GII.3 VLP 1 and 0.1 mg/mL, 100 μM peptide bound to SA chip, KD calculated from Ka and Kd values; for ka / kd: GII.3 VLP; for ka: association 90 sec; for kd: dissociation in PBS 60 sec
Description: as §1, §2

ECMGRRWMSS [No. 154]
Kd (GII.17 VLP): 0.628 µM | ka (GII.17 VLP): 49500 M⁻¹ s⁻¹ | kd (GII.17 VLP): 0.00205 s⁻¹ | Kd (GII.3 VLP): 0.123 µM | ka (GII.3 VLP): 141000 M⁻¹ s⁻¹ | kd (GII.3 VLP): 0.0173 s⁻¹

GCVGDLYCSA [No. 172]
Kd (GII.3 VLP): 69.3 µM | ka (GII.3 VLP): 189 M⁻¹ s⁻¹ | kd (GII.3 VLP): 0.0131 s⁻¹

ICSSWFPSVH [No. 48]
Kd (GII.17 VLP): 0.0766 µM | ka (GII.17 VLP): 1.28e+06 M⁻¹ s⁻¹ | kd (GII.17 VLP): 0.0978 s⁻¹ | Kd (GII.3 VLP): 0.0303 µM | ka (GII.3 VLP): 810000 M⁻¹ s⁻¹ | kd (GII.3 VLP): 0.0246 s⁻¹

KYRATICHTV [No. 52]
Kd (GII.17 VLP): 0.0179 µM | ka (GII.17 VLP): 1.29e+06 M⁻¹ s⁻¹ | kd (GII.17 VLP): 0.0232 s⁻¹ | Kd (GII.3 VLP): 0.0138 µM | ka (GII.3 VLP): 747000 M⁻¹ s⁻¹ | kd (GII.3 VLP): 0.0103 s⁻¹

NFRVPIRFTH [No. 131]
Kd (GII.3 VLP): 157 µM | ka (GII.3 VLP): 1660 M⁻¹ s⁻¹ | kd (GII.3 VLP): 0.262 s⁻¹

SVMVTRSLFG [No. 163]
ka (GII.17 VLP): 110000 M⁻¹ s⁻¹ | kd (GII.17 VLP): 0.0185 s⁻¹ | Kd (GII.3 VLP): 0.00766 µM | ka (GII.3 VLP): 1.03e+06 M⁻¹ s⁻¹ | kd (GII.3 VLP): 0.00786 s⁻¹

VCVDNDISMS [No. 150]
Kd (GII.17 VLP): 2510 µM | ka (GII.17 VLP): 102 M⁻¹ s⁻¹ | kd (GII.17 VLP): 0.255 s⁻¹ | Kd (GII.3 VLP): 0.437 µM | ka (GII.3 VLP): 27000 M⁻¹ s⁻¹ | kd (GII.3 VLP): 0.0118 s⁻¹

VELFLLTSSC [No. 155]
Kd (GII.3 VLP): 803 µM | ka (GII.3 VLP): 115 M⁻¹ s⁻¹ | kd (GII.3 VLP): 0.0926 s⁻¹

VVGFGRRSLF [No. 156]
Kd (GII.17 VLP): 234 µM | ka (GII.17 VLP): 398 M⁻¹ s⁻¹ | kd (GII.17 VLP): 0.0931 s⁻¹ | Kd (GII.3 VLP): 1.06 µM | ka (GII.3 VLP): 67300 M⁻¹ s⁻¹ | kd (GII.3 VLP): 0.0713 s⁻¹

YRRSKSEIFV [No. 59]
Kd (GII.17 VLP): 0.383 µM | ka (GII.17 VLP): 134000 M⁻¹ s⁻¹ | kd (GII.17 VLP): 0.0511 s⁻¹ | Kd (GII.3 VLP): 0.00887 µM | ka (GII.3 VLP): 805000 M⁻¹ s⁻¹ | kd (GII.3 VLP): 0.00714 s⁻¹

YVIRNSDRHN [No. 43]
Kd (GII.17 VLP): 234 µM | ka (GII.17 VLP): 822 M⁻¹ s⁻¹ | kd (GII.17 VLP): 0.192 s⁻¹ | Kd (GII.3 VLP): 0.0672 µM | ka (GII.3 VLP): 1.18e+06 M⁻¹ s⁻¹ | kd (GII.3 VLP): 0.0793 s⁻¹

YVVASKSNRL [No. 143]
Kd (GII.3 VLP): 0.0135 µM | ka (GII.3 VLP): 325000 M⁻¹ s⁻¹ | kd (GII.3 VLP): 0.0044 s⁻¹
